# From patent publication US6346539B1, “Treatment of skin conditions” (BTG International Limited, priority 1998, dated 2002)
# Like-named read-outs stand apart in the source and are kept apart here.
# Tests used:
# mouse melan-a cells = assay: Melanocyte proliferant activity of piperine derivatives, SRB assay, 4 days, 10% FBS; format: cell-based; conditions: for activity at 1 µM / activity at 10 µM / activity at 25 µM / activity at 50 µM / activity at 100 µM: Mus musculus, Melan-a, 96 h; for Active at 10 μM? / More active than piperine at higher conc. (μM)? / Active at higher conc. (μM)?: overall summary; for More active than piperine at higher conc. (μM)?: concentrations at which more active than piperine; for Relative activity to piperine: (A-100) compound/(A-100) piperine; for Active at higher conc. (μM)?: concentrations at which active
# Method: The plates were incubated at 37° C. in a 10% CO2, 90% air humidified atmosphere for the stated length of time. At the end of the incubation, an SRB assay was performed. Briefly, cells attached to the bottom of the plate were fixed by addition of cold trichloroacetic acid (TCA, 4° C., Aldrich, Dorset, UK) on the top of the growth medium (final TCA 20% w/v). The plate was placed at 4° C. for 1 hour before being gently washed five times with tap water. It was allowed to dry in air, or aided with a hair dryer to speed up the drying process, then 50 μl of 4% w/v SRB dissolved in 1% acetic acid in water was added to each well for 30 min. At the end of the staining period, unbound SRB was removed by washing 4 times with 1% acetic acid. The plate was air dried again, and 150 μl of 10 mM aqueous Tris base (Sigma-Aldrich Co. Ltd, Irvine, UK) was added into each well to solubilize the cell-bound dye.
# Various piperine derivatives of formula (1) were synthesised and tested for melanocyte (mouse melan-a) proliferant activity in-vitro. Cells we re incubated with the test compound for 4 days, as previously for the mouse cells but with 10% FBS, after which the sulphorhodamine-B (SRB) assay was performed to determnine cell number SRB uptake was measured as optical density at 550 nm. The control assay was carried out on cells incubated without test compound. There were 2 or 3 series of experiments, each of which consisted of six replcate experiments.
# Percentage cell growth was obtained with a given compound calculated as (optical density in the presence of the compound/control optical density)×100.
# Melan-a cell proliferant activity for tested compounds was compared with that obtained with piperine. […] All figures are given with Standard Error of the Mean.
# melan-a cells = assay: Dendricity of melan-a cells by observation under microscope; format: cell-based, mouse; set-up: key: +++: highly dendritic; ++: moderately dendritic; +: weakly dendritic; −: no effect
# Text: Effect on dendricity of melan-a cells by the test compounds was by observation under microscope. Dendricity is relevant to vitiligo since normal skin melanocytes have dendrites, but in vitiligo the melanocytes seem to lose these before they disappear from the patches.
# [1] = read-out: growth of melan-a cells as % of control, dose experiment
# [2] = 10 μM, read-out: growth of melan-a cells as % of control, dose experiment
# [3] = single concentration (10 μM), melan-a, ± SEM, read-out: Percentage cell growth (Repeated experiments)
# [4] = single concentration (10 μM), melan-a
SMILES,"""cross-over"" effect relative to piperine (mouse melan-a cells; 10 μM versus 50 μM)",activity at 1 µM (mouse melan-a cells; [1]),activity at 10 µM (mouse melan-a cells; [2]),activity at 25 µM (mouse melan-a cells; [1]),activity at 50 µM (mouse melan-a cells; [1]),activity at 10 µM (mouse melan-a cells; [3]),Active at 10 μM? (mouse melan-a cells; melan-a),Stimulant activity (mouse melan-a cells; [4]),"Dendricity (melan-a cells; Table 7, 10 μM)",activity at 100 µM (mouse melan-a cells; [1]),"Dentricity, dose experiment (melan-a cells; 1 μM)","Dentricity, dose experiment (melan-a cells; 10 μM)","Dentricity, dose experiment (melan-a cells; 50 μM)",More active than piperine at higher conc. (μM)? (mouse melan-a cells),Relative activity to piperine (mouse melan-a cells; 10 μM),Active at higher conc. (μM)? (mouse melan-a cells),"Dentricity, dose experiment (melan-a cells; 100 μM)","Dendricity (melan-a cells; Table 9, 10 μM)","Dendricity (melan-a cells; Table 8, 10 μM)"
"O=C(/C=C/C=C/c1ccc2c(c1)OCO2)N1CCCC1 [RV-A01, 5-E,E-piperinoylpyrrolidine]",less active than piperine at 10 μM but more active at 50 μM,109 ± 7%,122 ± 7%,142 ± 21%,186 ± 14%,183 ± 34%,Yes,Positive,+++,,,,,,,,,,
"O=C(/C=C/C=C/c1ccc2c(c1)OCO2)N1CCOCC1 [RV-A02, 5-E,E-piperinoyl morpholine]",,125 ± 10%,167 ± 17%,171 ± 8%,168 ± 12%,,Yes,Positive,+++,,,,,,,,,,
"O=C(/C=C/C=C/c1ccc2c(c1)OCO2)NCc1ccc2c(c1)OCO2 [RV-A04, 5-E,E-piperinoylpiperinolymine]",,101 ± 12%,138 ± 10%,,150 ± 15%,,Yes^a,"Non- significant here, but positive in dose response test",+,71 ± 9%,−,+,+,,,,,,
"CCCCCCNC(=O)/C=C/C=C/c1ccc2c(c1)OCO2 [RV-A05, 5-E,E-piperinoylhexylamine]",,155 ± 9%,188 ± 13%,178 ± 18%,178 ± 8%,,Yes,Positive,+++,,,,,No,,,,,
"CC(C)CNC(=O)/C=C/C=C/c1ccc2c(c1)OCO2 [RV-A06, Piperlonguminine]",,134 ± 7%,188 ± 14%,172 ± 15%,135 ± 24%,147 ± 66%,Yes,Positive,+++,,,,,No,,,,,
"CNC(=O)/C=C/C=C/c1ccc2c(c1)OCO2 [RV-A07, 5-E,E-piperinoylmethylamine]",,140 ± 12%,170 ± 24%,,71 ± 5%,170 ± 24%,Yes,Positive,++,46 ± 2%,++,++,+,No,0.6,No,+,,
"CCNC(=O)/C=C/C=C/c1ccc2c(c1)OCO2 [RV-A08, 5-E,E-piperinoylethylamine]",,139 ± 27%,200 ± 14%,,81 ± 12%,200 ± 14%,Yes,Positive,+++,62 ± 13%,++,+++,+,No,0.73,No,+,,
"CC(C)NC(=O)/C=C/C=C/c1ccc2c(c1)OCO2 [RV-A09, 5-E,E-piperinoylisopropylamine]",,187 ± 15%,224 ± 19%,,85 ± 5%,224 ± 19%,Yes,Positive,+++,42 ± 6%,+++,+++,+,No,0.76,No,+,,
"O=C(/C=C/C=C/c1ccc2c(c1)OCO2)NC1CCCCC1 [RV-A10, 5-E,E-piperinoyl cyclohexylamine]",,301 ± 20%,308 ± 29%,,155 ± 22%,308 ± 29%,Yes,Positive,+++,100 ± 13%,+++,+++,+,,1.02,,+,,
"CCCCNC(=O)/C=C/C=C/c1ccc2c(c1)OCO2 [RV-A11, 5-E,E-piperinoylbutylamine]",,189 ± 6%,264 ± 21%,,158 ± 20%,264 ± 21%,Yes,Positive,+++,84 ± 6%,+++,+++,++,,0.66,,+,,
"COC(=O)/C=C/C=C/c1ccc2c(c1)OCO2 [RV-AB1, 5-E,E-piperinic Acid Methyl Ester]",,125 ± 13%,147 ± 16%,,187 ± 12%,,Yes,Positive,,171 ± 8%,−,+,++,,,,++,++,
"CCOC(=O)/C=C/C=C/c1ccc2c(c1)OCO2 [RV-AB2, 5-E,E-piperinic Acid Ethyl Ester]",,,,,,29 ± 9%,No^c,Positive,,,,,,,,,,Toxic,
"CC(C)OC(=O)/C=C/C=C/c1ccc2c(c1)OCO2 [RV-AB4, 5-E,E-piperinic Acid Isopropyl Ester]",,175 ± 6%,224 ± 12%,,148 ± 19%,224 ± 12%,Yes,Positive,,90 ± 7%,++,++,++,,0.8,,+,++,
"CCCOC(=O)/C=C/C=C/c1ccc2c(c1)OCO2 [RV-AB5, 5-E,E-piperinic Acid Propyl Ester]",,120 ± 21%,151 ± 19%,,163 ± 8%,166 ± 35%,Yes,Positive,,123 ± 8%,−,++,++,,0.95,,+,++,
"CCCCOC(=O)/C=C/C=C/c1ccc2c(c1)OCO2 [RV-AB6, 5-E,E-piperinic Acid Butyl Ester]",,103 ± 5%,148 ± 18%,,190 ± 11%,148 ± 18%,Yes,Positive,,128 ± 17%,−,+,++,,0.59,,+,+,
"O=C(/C=C/c1ccc2c(c1)OCO2)N1CCCCC1 [RV-B01, 1-(3-trans-benzo-1,3-dioxol-5-ylacryloyl)piperidine]",,111 ± 6%,147 ± 7%,187 ± 18%,187 ± 8%,,Yes,Positive,,,,,,,,,,,++
"O=C(/C=C/c1ccc2c(c1)OCO2)N1CCCC1 [RV-B02, 1-(3-trans-benzo-1,3-dioxol-5-ylacryloyl)pyrrolidine]",,,,,,140 ± 14%,No^b,Non- significant,,,,,,,,,,,+
"COC(=O)/C=C/c1ccc2c(c1)OCO2 [RV-BB1, 3-trans-benzo-1,3-dioxol-5-ylacrylic acid methyl ester]",,,,,,,No^b,Non- significant,,,,,,,,,,,
